Among the data in article PMC12283027, “Development of Potent and Selective RIPK1 Degraders Targeting Its Nonenzymatic Function for Cancer Treatment” (Journal of Medicinal Chemistry, 2025) are Dmax values, retold here.

Molecules are shown by their SMILES.

The target of this assay is T1, Receptor-interacting protein kinase 1 (RIPK1) (Homo sapiens, UniProt Q13546).
T1 construct: with VHL
Put plainly: cell-based. Details: HiBiT luminescence of CRISPR-tagged endogenous RIPK1 (C-terminal HiBiT) after PROTAC treatment; degradation DC50 and Dmax. The settings on record: HEK293T-RIPK1-HiBiT cells; read-out: Dmax (HEK293T-RIPK1-HiBiT cell line). On the procedure: Screening of RIPK1 Degraders Using HEK-293T-RIPK1-HiBiT cells  3 Primary screening RIPK1 degraders using HEK293T-RIPK1-HiBiT cell line. Cells were seeded in 96-well plates and treated with test compounds for 20 h. After treatment, Bioluminescence signal reflecting RIPK1 protein level was generated by adding Nano-Glo HiBiT detect reagent. A) Bioluminescence signal was visualized using Bio-Rad ChemiDoc MP Imaging system. The grayscale intensity is positively correlated with protein abundance. B) Relative luminescence Units (RLUs) in each well was measured using CLARIOstar plate reader. DC50 values were calculated by nonlinear regression analysis in GraphPad Prism software. DC50 = dose that reduces RIPK1 protein by 50%. D max = maximum reduction of RIPK1 protein achieved by the compound. Guide RNA oligos for RIPK1 (foward: CACCGA-GCCCAT-CCAGGG-TTAGTTC. reverse: AAACGA-ACTAAC-CCTGGA-TGGGCTC) were cloned into Cas9 expression plasmid (pSpCas9–2A-GFP purchased from Addgene), and cotransfected with donor DNA oligo using FuGENE HD Transfection Reagent (Promega). GFP positive cells were FACS sorted and single clones were screened for HiBiT signal by Nano Glo HiBiT Lytic Detection System (Promega).

T1 sequence (Q13546 whole entry): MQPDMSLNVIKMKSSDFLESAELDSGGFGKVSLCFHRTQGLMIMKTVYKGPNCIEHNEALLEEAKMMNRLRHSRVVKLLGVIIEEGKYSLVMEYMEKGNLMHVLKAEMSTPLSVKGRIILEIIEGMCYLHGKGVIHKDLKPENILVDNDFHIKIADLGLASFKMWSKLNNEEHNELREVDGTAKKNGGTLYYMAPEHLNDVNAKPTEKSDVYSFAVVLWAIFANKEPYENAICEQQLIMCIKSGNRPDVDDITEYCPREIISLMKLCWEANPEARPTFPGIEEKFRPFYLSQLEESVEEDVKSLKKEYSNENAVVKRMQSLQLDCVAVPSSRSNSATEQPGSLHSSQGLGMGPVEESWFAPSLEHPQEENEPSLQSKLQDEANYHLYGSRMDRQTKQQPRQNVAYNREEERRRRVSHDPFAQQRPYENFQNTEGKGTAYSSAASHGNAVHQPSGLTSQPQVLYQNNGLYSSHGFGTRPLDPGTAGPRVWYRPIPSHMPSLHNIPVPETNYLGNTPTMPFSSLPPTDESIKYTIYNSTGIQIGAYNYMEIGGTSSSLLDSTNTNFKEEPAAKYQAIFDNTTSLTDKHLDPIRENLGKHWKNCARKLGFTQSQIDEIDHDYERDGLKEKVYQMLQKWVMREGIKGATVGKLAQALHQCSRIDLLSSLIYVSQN
T1 sequence (P40337 whole entry partner): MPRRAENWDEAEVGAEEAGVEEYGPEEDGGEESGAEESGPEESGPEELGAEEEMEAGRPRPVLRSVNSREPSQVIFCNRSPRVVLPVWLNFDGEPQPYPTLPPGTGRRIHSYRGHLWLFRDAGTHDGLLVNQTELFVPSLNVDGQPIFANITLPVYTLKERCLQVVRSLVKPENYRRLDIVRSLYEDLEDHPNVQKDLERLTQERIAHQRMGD

For the compound `Cc1ncsc1-c1ccc([C@H](C)NC(=O)[C@@H]2C[C@@H](O)CN2C(=O)[C@@H](NC(=O)CN2CCN(CC3CCN(CC4CCN(C(=O)Cn5cc(-c6cnc(N)c7c(-c8ccc9c(c8)CCN9C(=O)Cc8ccccc8)csc67)cn5)CC4)CC3)CC2)C(C)(C)C)cc1` [225-5, (2S,4R)-1-((S)-2-(2-(4-((1-((1-(2-(4-(4-Amino-3-(1-(2-phenylacetyl)indolin-5-yl)thieno[3,2-c]pyridin-7-yl)-1H-pyrazol-1-yl)acetyl)piperidin-4-yl)methyl)piperidin-4-yl)methyl)piperazin-1-yl)acetamido)-3,3-dimethylbutanoyl)-4-hydroxy-N-((S)-1-(4-(4-methylthiazol-5-yl)phenyl)ethyl)pyrrolidine-2-carboxamide], the Dmax came out at 93%.
On to `Cc1ncsc1-c1ccc([C@H](C)NC(=O)[C@@H]2C[C@@H](O)CN2C(=O)[C@@H](NC(=O)C2CCN(CCNC(=O)Cn3cc(-c4cnc(N)c5c(-c6ccc7c(c6)CCN7C(=O)Cc6ccccc6)csc45)cn3)CC2)C(C)(C)C)cc1` [225-6], for which the Dmax worked out at 34%.
As for `Cc1ncsc1-c1ccc([C@H](C)NC(=O)[C@@H]2C[C@@H](O)CN2C(=O)[C@@H](NC(=O)C2CCN(CCCNC(=O)Cn3cc(-c4cnc(N)c5c(-c6ccc7c(c6)CCN7C(=O)Cc6ccccc6)csc45)cn3)CC2)C(C)(C)C)cc1` [225-7], the figure is 22%; as for `Cc1ncsc1-c1ccc([C@H](C)NC(=O)[C@@H]2C[C@@H](O)CN2C(=O)[C@@H](NC(=O)CCCCCN2CCN(C(=O)Cn3cc(-c4cnc(N)c5c(-c6ccc7c(c6)CCN7C(=O)Cc6ccccc6)csc45)cn3)CC2)C(C)(C)C)cc1` [229-1], 58%; as for `Cc1ncsc1-c1ccc([C@H](C)NC(=O)[C@@H]2C[C@@H](O)CN2C(=O)[C@@H](NC(=O)CCCCNC2CCN(C(=O)Cn3cc(-c4cnc(N)c5c(-c6ccc7c(c6)CCN7C(=O)Cc6ccccc6)csc45)cn3)CC2)C(C)(C)C)cc1` [229-2], 9%.
As to `Cc1ncsc1-c1ccc([C@H](C)NC(=O)[C@@H]2C[C@@H](O)CN2C(=O)[C@@H](NC(=O)CCN2CCN(C(=O)CNC(=O)Cn3cc(-c4cnc(N)c5c(-c6ccc7c(c6)CCN7C(=O)Cc6ccccc6)csc45)cn3)CC2)C(C)(C)C)cc1` [229-3], the Dmax amounted to 5%.
To `Cc1ncsc1-c1ccc([C@H](C)NC(=O)[C@@H]2C[C@@H](O)CN2C(=O)[C@@H](NC(=O)CCN2CCN(CCNC(=O)Cn3cc(-c4cnc(N)c5c(-c6ccc7c(c6)CCN7C(=O)Cc6ccccc6)csc45)cn3)CC2)C(C)(C)C)cc1` [229-4] belongs 25%.
